For one molecule, EC50 (substrate-evoked depolarization, activation) results are on record in PubChem BioAssay AID1794813.

This assay addresses Sodium-dependent phosphate transport protein 2A (Homo sapiens) (UniProt Q06495). The experiment in a line: PubChem AID 1794813. The following applies: HEK293 JumpIn SLC34A1, FLIPR membrane potential dye.

Where “and” joins values, the source holds several entries; their conditions need not be identical. Equal values may be shown once.

Sequence of Sodium-dependent phosphate transport protein 2A (Homo sapiens) (Q06495 whole entry, looked up): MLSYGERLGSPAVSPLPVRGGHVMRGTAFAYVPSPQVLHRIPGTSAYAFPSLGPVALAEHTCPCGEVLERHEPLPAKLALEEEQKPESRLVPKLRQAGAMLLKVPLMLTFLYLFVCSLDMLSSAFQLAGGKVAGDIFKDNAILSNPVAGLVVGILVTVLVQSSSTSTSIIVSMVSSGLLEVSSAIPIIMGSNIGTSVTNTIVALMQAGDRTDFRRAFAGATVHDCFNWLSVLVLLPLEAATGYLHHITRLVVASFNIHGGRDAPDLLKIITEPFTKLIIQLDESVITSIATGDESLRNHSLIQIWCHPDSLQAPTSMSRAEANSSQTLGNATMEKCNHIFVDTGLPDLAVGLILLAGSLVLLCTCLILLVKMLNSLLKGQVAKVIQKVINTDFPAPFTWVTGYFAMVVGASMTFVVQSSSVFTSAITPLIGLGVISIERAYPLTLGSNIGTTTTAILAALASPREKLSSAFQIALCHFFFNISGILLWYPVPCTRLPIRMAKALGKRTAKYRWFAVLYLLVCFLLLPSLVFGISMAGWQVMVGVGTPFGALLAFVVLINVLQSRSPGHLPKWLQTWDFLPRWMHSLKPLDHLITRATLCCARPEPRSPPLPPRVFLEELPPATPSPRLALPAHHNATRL

For the molecule `O=P(O)(O)O`, the EC50 (substrate-evoked depolarization, activation) was 32 µM and 39 µM.
